Series [1] deals with smooth muscle cells isolated from sense- or antisense-treated cerebral arteries. Nature of the series: Perforated patch clamp, UTP-activated whole-cell current. The series is classed as cell-based, rat. The settings on record: 30 μM UTP. As to the method:
Patch clamp electrophysiology. Single smooth muscle cells were enzymatically isolated from sense- or antisense-treated cerebral arteries using an isolation solution of the following composition (in mM): 60 NaCl, 58 sodium glutamate, 5.6 KCl, 2 MgCl2, 10 glucose, 0.1 CaCl2, 10 HEPES (pH 7.4) with 0.5 mg/ml papain, and 1 mg/ml dithioerythritol added. After 10 minutes, arterial segments were placed in a second isolation solution containing 0.1 mM CaCl2 and a collagenase type F and hyaluronidase mixture (1 mg/ml each). Trituration was performed with a polished wide-bore pipette and the cells were stored on ice and used the same day. Whole cell ionic currents were measured using the perforated patch method in the presence or absence of 30 μM UTP. Recording electrodes (4-7 MΩ resistance) were pulled from borosilicate glass. Plated cells were voltage clamped and held at −60 mV for 15 minutes prior to experimentation; whole cell currents were monitored while voltage was slowly ramped (−120 to +20 mV, 0.167 mV/ms); currents were not leak subtracted. The bath solution contained (in mM): 120 NaCl, 1.2 MgCl2, 1.8 CaCl2, 10 HEPES (pH 7.4), and 10 glucose. The pipette solution contained (in mM): 120 CsCl, 3 MgCl2, 0.1 EGTA, 10 HEPES (pH 7.2), 10 glucose and 200 μg/ml amphotericin B. A series resistance of approximately 40 MΩ was accepted for all perforated patch clamp experiments. Membrane currents were filtered at 1 kHz, digitized at 5 kHz and stored in a personal computer system for subsequent analysis. pClamp 8.1 and Clampfit 8.1 (Axon Instruments) were used to record and analyze membrane currents. Cell capacitance was measured with the cancellation circuitry of the voltage-clamp amplifier (Axopatch 200A amplifier, Axon Instruments, Sunnyvale, Calif., USA). All current recordings were performed at room temperature (22° C.).
In general terms: The patch-clamp technique gives a direct electrical read-out from membranes.

The next series deals with cerebral artery SMCs. Nature of the series: Membrane potential recordings in pressurized cerebral arteries. The settings on record: for resting membrane potential (Vm): before UTP; for pressure-induced depolarization of arterial SMCs: intravascular pressure increased from 20 to 80 mm Hg. It is filed as cell-based, rat. From the text: Oligodeoxynucleotide Sequences and Reverse Permeabilization. TRPC6 sense and antisense oligodeoxynucleotides (ODN's) were designed as previously described (Welsh et al 2002 Circ Res 90, 248-250) and were as follows: sense, 5′-[…]-3′ (SEQ ID: 3) and 5′-GCACACGCAGCCTCTTCAC-3′ (SEQ ID: 4) antisense, 5′-[…]-3′ (SEQ ID: 5) and 5′-[…]-3′ (SEQ ID: 6). TRPC3 sense and antisense ODN's were designed based on the rat TRPC3 gene (Ohki et al 2000 J Biol Chem 275: 39055-39060) and are as follows: sense, 5′-[…]-3′ (SEQ ID: 7) and 5′-[…]-3′ (SEQ ID: 8); anti-sense, 5′-[…]-3′ (SEQ ID: 9) and 5′-[…]-3′ (SEQ ID: 10). The last five bases on the 5′ and 3′ end were phosphorothioated in order to limit ODN degradation. For some experiments fluoroscein-isothiocyanate was conjugated to the 5′ end to allow for histological assessment of cellular uptake of the ODNs. All ODNs were synthesized and HPLC purified commercially by Qiagen (Alameda, Calif., USA). Sense and antisense ODN's (2 μM) were introduced into the arterial SMs using a reversible permeabilization procedure (Lesh et al 1995 Circ Res 77,220-230)). The arterial segments were then organ cultured for 3 days in D-MEM/F-12 culture media with L-glutamine (2 mM), penicillin (50 units/ml) and streptomycin (50 μg/ml) prior to use.
Diameter and membrane potential recordings. Endothelial cell denuded artery segments were mounted on glass pipettes in an arteriograph chamber (Living Systems, Burlington, Vt., USA), pressurized to 20 mmHg (with no flow), and superfused with warm (37° C.), gassed (95% 02/5% CO2) physiological saline solution (PSS) containing (in mM): 119 NaCl, 4.7 KCl, 24 NaHCO3, 0.2 KH2PO4, […], 1.2 MgSO4, 1.6 CaCl2, and 10.6 glucose, pH 7.4. In experiments using Ca^2+-free PSS, CaCl2 was omitted and 3 mM EGTA and 30 μM diltiazem added. In experiments with diacylglycerol induction, 300 μM of the diacylglycerol analogue OAG (1-oleyol-2-acetyl-sn-glycerol) was added. The endothelium was removed as previously described (Sun et al 1993 Endothelium 1, 115-122). To verify endothelial cell removal the arteries were pressurized to 60 mmHg and allowed to develop myogenic tone prior to exposing the vessels to 1 μM UTP. Absence of a dilation or biphasic constrictor response to 1 μM UTP indicated successful endothelial cell removal (Marelli 2001 Am J Physiol Heart Cir Physiol 281, H1759-H1766; Miyagi et al 1996 Br J Pharmacol 118, 847-856). Arterial diameter or membrane potential (Vm) of sense and anti-sense treated arteries was measured in the absence (control) or presence of UTP (concentration range: 0.1 to 10 μM). Membrane potential was measured by inserting a sharp glass electrode (≈100 MΩ resistance) containing 0.5M KCl into the vessel wall. The criteria for successful vascular smooth muscle cell impalement were: (1) a sharp negative Vm deflection on entry; (2) a stable potential for at least 1 minute after entry; and (3) a sharp positive Vm deflection upon removal. Measurements were made using an electrometer (World Precision Instruments) and the data were recorded via computer using Axotape and Dataq software. Arterial diameter was measured using a video dimension analyzer (IonOptix Corporation; Milton, Mass.).

Entries after “also recorded” stand apart in the source; their conditions may differ.

Consider “5′-GAGAACCATGAACTGGAATA-3′ (SEQ ID: 9) and 5′-ACGACCAACACGACCAGACA-3′ (SEQ ID: 10) (phosphorothioate ends, further chemistry not given here) [TRPC3 antisense, antisense ODNs based on the rat TRPC3 gene; last five bases on the 5′ and 3′ end phosphorothioated]”, for which, in series [1], the “SMCs in which the response to UTP was absent” value is given as 3 of 5 and the “SMCs in which the response to UTP was greatly suppressed” value is 2 of 5. Moreover, in the series on cerebral artery SMCs (all UTP concentrations tested), the “UTP-induced depolarization of SMCs versus sense-treated arteries” value is on record as “significantly less; also recorded: significantly reduced”. Also, in the series on cerebral artery SMCs, the “resting membrane potential (Vm)” value was −49±2 mV and the “pressure-induced depolarization of arterial SMCs” value was 14±1 mV.
For “5′-TATTCCAGTTCATGGTTCTC-3′ (SEQ ID: 7) and 5′-TGTCTGGTCGTGTTGGTCGT-3′ (SEQ ID: 8) (phosphorothioate ends, further chemistry not given here) [TRPC3 sense, sense control ODNs based on the rat TRPC3 gene; end bases phosphorothioated]”, the “cells with UTP-activated whole cell current” value in series [1] (voltage ramps −120 mV to 20 mV) is given as 8 of 9. Also, in the series on cerebral artery SMCs, the “resting membrane potential (Vm)” value is recorded as −50±1 mV and the “pressure-induced depolarization of arterial SMCs” value amounted to 14±1 mV.

The values are drawn from patent publication US20060217340A1, “Methods and products for treating hypertension by modulation of TRPC3 channel activity” (University of Vermont and State Agricultural College, priority 2005, published 2006).
